Source: US20250213558A1, “T-TYPE CALCIUM CHANNEL MODULATORS COMPRISING A PIPERAZINE OR 1,4-DIAZEPANE CORE AND METHODS OF USE THEREOF” (Praxis Precision Medicines, Inc., priority 2022, published 2025)
pIC50: −log10 of the molar value. Read-outs that look alike come from different tables or passages of the source.

Molecular target: T1, Human Cav3.1 calcium channel (Homo sapiens, UniProt O43497)
T1 construct: expressed in transfected cells; host or cells: HEK-293 natClytin/TASK1+Cav3.1 cell line
Assay: Human Cav3.1 calcium channel patch clamp assay (SyncroPatch 384PE; single point and IC50, voltage dependent block)
Format: cell-based
Conditions: for % Inhibition (Single Point Data): patch clamp
Method: Certain compounds (as indicated) were tested for Human Cav3.1 calcium channel activity via a patch clamp assay as disclosed herein.
Pulse generation and data collection were performed with PatchController384 V1.3.0 and DataController384 V1.2.1 (Nanion Technologies). Offline analysis was performed using Excel and Graphpad Prism (V 8.4.2) with complete data files uploaded to Dotmatics. The access resistance and apparent membrane capacitance were estimated using built-in protocols. Current was recorded in whole cell configuration from a population of cells. The cells were lifted, triturated, and resuspended at 800,000 cells/ml. The cells were allowed to recover in the cell hotel prior to experimentation. Currents were recorded at room temperature. The external solution contained the following (in mM): NaCl 80, NMDG 60, KCl 4, MgCl2 1, CaCl2 6, glucose 5 and HEPES 10 (pH=7.4, Osmolarity˜300 mOsm). The extracellular solution was used as the wash, reference and compound delivery solution.
The compound plate was created at 2× concentrated in the extracellular solution. The compound was diluted to 1:2 when added to the recording well. The amount of DMSO in the extracellular solution was held constant at the level used for the highest tested concentration. For the voltage clamp experiments on Cav3.1, data were sampled at 10 KHz. After establishment of the seal and the passage in the whole cell configuration, the cells were held at −120 mV. Cav3.1 current was evoked using a 100 ms step to −20 mV (to measure resting state block), followed by a 1600 ms step to −65 mV and a second 100 ms step to −20 mV (to measure voltage dependent block). The voltage protocol was applied every 15 seconds in the absence and in the presence of the compounds under investigation. […] Current amplitude (pA) was measured in the peak 1 and 2. The average of last 3 sweeps of each liquid period (vehicle, compound under investigation, full block) was calculated. Nickel-sensitive current was used to calculate the % of inhibition in the presence of the compound under investigation.

[1] = Testing Conc 1.25, HEK-293 natClytin/TASK1+Cav3.1 cell line
[2] = voltage dependent block (VDB), HEK-293 natClytin/TASK1+Cav3.1 cell line, read-out: Cav3.1 IC50

T1 sequence (O43497 whole entry): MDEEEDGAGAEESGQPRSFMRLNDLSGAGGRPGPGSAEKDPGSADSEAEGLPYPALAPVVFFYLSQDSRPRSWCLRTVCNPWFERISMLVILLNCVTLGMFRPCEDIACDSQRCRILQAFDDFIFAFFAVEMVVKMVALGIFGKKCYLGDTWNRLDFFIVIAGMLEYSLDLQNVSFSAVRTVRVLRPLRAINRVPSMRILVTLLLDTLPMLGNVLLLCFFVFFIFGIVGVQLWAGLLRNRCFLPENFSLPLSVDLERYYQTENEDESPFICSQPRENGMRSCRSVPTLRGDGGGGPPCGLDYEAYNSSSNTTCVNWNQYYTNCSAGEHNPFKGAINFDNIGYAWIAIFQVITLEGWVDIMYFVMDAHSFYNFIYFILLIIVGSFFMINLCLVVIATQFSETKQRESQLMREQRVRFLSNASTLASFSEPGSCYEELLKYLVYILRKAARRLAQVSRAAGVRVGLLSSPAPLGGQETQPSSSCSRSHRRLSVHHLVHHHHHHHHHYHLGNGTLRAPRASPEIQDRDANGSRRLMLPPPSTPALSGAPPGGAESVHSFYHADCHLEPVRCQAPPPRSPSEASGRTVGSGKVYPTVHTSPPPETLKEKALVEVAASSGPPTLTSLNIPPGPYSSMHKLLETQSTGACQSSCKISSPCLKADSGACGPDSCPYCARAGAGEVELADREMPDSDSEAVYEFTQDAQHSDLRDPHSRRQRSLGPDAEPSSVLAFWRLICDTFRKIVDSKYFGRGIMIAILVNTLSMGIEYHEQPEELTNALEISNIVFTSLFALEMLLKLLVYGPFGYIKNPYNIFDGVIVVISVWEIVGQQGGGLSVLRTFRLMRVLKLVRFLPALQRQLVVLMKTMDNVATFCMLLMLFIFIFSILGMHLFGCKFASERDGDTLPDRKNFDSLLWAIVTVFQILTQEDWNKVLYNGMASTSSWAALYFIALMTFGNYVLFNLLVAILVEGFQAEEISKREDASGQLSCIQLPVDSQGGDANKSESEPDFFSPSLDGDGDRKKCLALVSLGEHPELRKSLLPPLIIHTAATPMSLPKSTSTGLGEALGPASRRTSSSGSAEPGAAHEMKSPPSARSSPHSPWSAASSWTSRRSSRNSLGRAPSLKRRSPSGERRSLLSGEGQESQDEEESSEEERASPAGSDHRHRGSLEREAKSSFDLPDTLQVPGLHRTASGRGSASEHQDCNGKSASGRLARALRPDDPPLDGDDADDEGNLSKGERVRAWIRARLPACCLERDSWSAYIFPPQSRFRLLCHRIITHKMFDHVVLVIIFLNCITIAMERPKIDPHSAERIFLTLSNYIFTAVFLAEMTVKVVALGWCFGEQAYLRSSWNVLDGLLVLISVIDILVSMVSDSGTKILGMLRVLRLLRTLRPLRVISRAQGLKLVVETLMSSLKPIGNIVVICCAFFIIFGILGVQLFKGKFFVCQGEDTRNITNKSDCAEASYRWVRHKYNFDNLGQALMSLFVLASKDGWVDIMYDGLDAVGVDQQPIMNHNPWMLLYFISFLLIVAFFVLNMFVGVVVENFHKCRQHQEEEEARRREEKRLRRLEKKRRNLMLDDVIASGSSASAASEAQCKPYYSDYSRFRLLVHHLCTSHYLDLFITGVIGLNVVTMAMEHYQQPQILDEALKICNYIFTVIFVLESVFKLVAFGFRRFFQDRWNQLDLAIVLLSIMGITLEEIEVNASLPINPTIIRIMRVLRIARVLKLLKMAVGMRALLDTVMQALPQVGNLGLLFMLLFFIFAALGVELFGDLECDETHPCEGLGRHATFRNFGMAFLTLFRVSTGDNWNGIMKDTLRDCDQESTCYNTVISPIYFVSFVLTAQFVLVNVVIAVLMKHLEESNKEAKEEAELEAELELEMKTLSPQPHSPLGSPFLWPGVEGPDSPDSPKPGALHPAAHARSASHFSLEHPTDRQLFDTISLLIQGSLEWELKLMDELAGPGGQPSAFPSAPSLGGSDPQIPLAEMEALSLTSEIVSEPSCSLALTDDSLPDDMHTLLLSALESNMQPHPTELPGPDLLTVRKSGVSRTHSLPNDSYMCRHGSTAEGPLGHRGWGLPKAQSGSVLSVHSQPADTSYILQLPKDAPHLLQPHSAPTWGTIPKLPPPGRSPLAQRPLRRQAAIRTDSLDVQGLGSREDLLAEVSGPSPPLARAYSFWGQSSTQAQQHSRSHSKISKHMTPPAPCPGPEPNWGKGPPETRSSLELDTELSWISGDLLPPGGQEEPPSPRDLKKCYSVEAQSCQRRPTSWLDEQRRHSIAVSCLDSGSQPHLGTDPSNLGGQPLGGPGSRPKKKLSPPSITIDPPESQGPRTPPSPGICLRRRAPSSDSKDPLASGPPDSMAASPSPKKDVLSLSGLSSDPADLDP

Row | pIC50 [2] | % Inhibition (Single Point Data) (Testing Conc 1, HEK-293 natClytin/TASK1+Cav3.1 cell line) [%] | SMILES | % Inhibition (Single Point Data) [1] [%] | pIC50
1 | 6.08 | – | CC(C)(C)NC(=O)CN1C[C@H]2C[C@@H]1CN2CC(=O)Nc1ccc(F)c(Cl)c1 [Compound 26] | 57.68 | –
2 | – | – | CN(C(=O)CN1C2CC1CN(Cc1nc3c(Cl)cc(F)cc3[nH]1)C2)C1CCCC1 [Compound 110] | 91.767 | > 7.11
3 | 5.81 | – | O=C(CN1CCN(CC(=O)NC2(C(F)(F)F)CC2)CC1)Nc1cc(F)cc(OC(F)F)c1 [Compound 54] | 39.211 | –
4 | – | 56.921 | CC(C)(C)NC(=O)CN1CCCN(CC(=O)NC23CC4CC(CC(C4)C2)C3)CC1 [Compound 32] | – | –
5 | 5.47 | – | CC(C)(C)NC(=O)CN1C[C@@H]2C[C@H]1CN2CCNC(=O)C12CC3CC(CC(C3)C1)C2 [Compound 323] | 17.66 | –
6 | 5.32 | – | CC(C)(C)NC(=O)CN1C[C@@H]2C[C@H]1CN2C(=O)NC12CC3CC(CC(C3)C1)C2 [Compound 304] | 25.21 | –
7 | 5.48 | – | CC(C)Cc1cc(CNC(=O)CN2C[C@@H]3C[C@H]2CN3CC(=O)NC(C)(C)C)nn1-c1ccccc1 [Compound 302] | 21.003 | –
8 | 6.15 | – | CC(C)(C)C(O)CN1C[C@@H]2C[C@H]1CN2CC(=O)NC12CC3CC(CC(C3)C1)C2 (some centres unmarked) [Compound 297] | 63.628 | –
9 | 6.22 | – | CC(C)(C)NC(=O)CN1CC2CCC1CN2CC(=O)NC12CC3CC(CC(C3)C1)C2 (centres unmarked) [Compound 8] | 76.573 | –
10 | 5.71 | – | CC(C)(C)NC(=O)CN1C[C@H]2COC[C@@H](C1)[C@H]2CC(=O)Nc1cc(F)cc(Cl)c1 [Compound 371] | – | –
11 | 6.38 | – | CC(C)(C)NC(=O)CN1C[C@@H]2C[C@H]1CN2CC(=O)NC12CC3CC(CC(Cl)(C3)C1)C2 [Compound 344] | 79.298 | –
12 | – | – | CC(C)(C)NC(=O)CN1C2CCC1CN(Cc1nc3c(C(F)F)cccc3[nH]1)C2 [Compound 202] | 100.89 | –
13 | 5.80 | – | O=C(CN1C[C@H]2C[C@@H]1CN2CC(=O)NC1(C(F)(F)F)CC1)Nc1ccc(F)c(Cl)c1 [Compound 28] | 39.491 | –
14 | – | – | CC(C)(C)NC(=O)CN1C2CC1CN(CC(=O)NC1CCCCC1)C2 [Compound 309] | 22.713 | –
15 | – | – | COc1cc(NC(=O)CN2CC3CC(C2)N3CC(=O)NC2(C(F)(F)F)CC2)ccc1Cl [Compound 332] | 101.57 | –
16 | 5.24 | – | CC(C)(C)NC(=O)CN1CCO[C@H](CNC(=O)c2ccc(F)c(OC(F)F)c2)C1 [Compound 367] | – | –
17 | 6.73 | – | CC(C)(C)NC(=O)CN1C2CC(CNC(=O)c3cc(F)cc(Cl)c3)CC1C2 (centres unmarked) [Compound 322] | 91.88 | –

Row | pIC50 [2] | % Inhibition (Single Point Data) (Testing Conc 1, HEK-293 natClytin/TASK1+Cav3.1 cell line) [%] | SMILES | % Inhibition (Single Point Data) [1] [%] | pIC50
18 | 5.48 | – | O=C(CN1C[C@@H]2C[C@H]1CN2CCC1CCOCC1)NC12CC3CC(CC(C3)C1)C2 [Compound 291] | 18.238 | –
19 | 6.03 | – | CC(C)(C)NC(=O)CN1C[C@H]2C[C@@H]1CN2CC(=O)Nc1cc(F)cc(Cl)c1 [Compound 59] | 49.275 | –
20 | – | – | [2H]C([2H])([2H])C(NC(=O)CN1CC2CC1CN2CC(=O)Nc1cc(F)cc(Cl)c1)(C([2H])([2H])[2H])C([2H])([2H])[2H] (centres unmarked) [Compound 57] | 95.078 | –
21 | 6.47 | – | O=C(CN1CC2CC1CN2CCNC(=O)C1(C(F)(F)F)CC1)Nc1ccc(F)c(Cl)c1 (centres unmarked) [Compound 18] | 83.021 | –
22 | – | – | C[C@H](c1nc2c(Cl)cc(F)cc2[nH]1)N1CC2CCC(C1)N2CC(=O)NC(C)(C)C [Compound 118] | 102.64 | –
23 | – | – | CC(C)(C)NC(=O)CN1C2CC1CN(Cc1nc3c(OC(F)F)ccc(F)c3[nH]1)C2 [Compound 173] | 94.854 | > 7.11
24 | 6.73 | – | COc1cc(F)cc(NC(=O)CN2C[C@@H]3C[C@H]2CN3CC(=O)NC2(C(F)(F)F)CC2)c1 [Compound 320] | 87.599 | –
25 | – | – | CC(C)(NC(=O)CN1C2CC1CN(CC(=O)Nc1ccc(F)c(Cl)c1)C2)C(F)(F)F [Compound 241] | 101.68 | –
26 | 6.67 | – | Fc1cc(Cl)c2nc(CN3CCN(Cc4ccc5c(c4)OCCO5)CC3)[nH]c2c1 [Compound 68] | 87.04 | –
27 | 6.35 | – | Cc1cc(NC(=O)CN2C[C@@H]3C[C@H]2CN3CC(=O)NC(C)(C)C)ccc1F [Compound 341] | 62.973 | –
28 | – | – | Fc1cc(Cl)c2nc(CN3CC4CC(C3)N4CCC3CCC(F)(F)CC3)[nH]c2c1 [Compound 104] | 99.877 | > 7.11
29 | – | – | O=C(CN1CC2CC(C1)N2CCNC(=O)C1(C(F)(F)F)CCC1)Nc1ccc(F)c(Cl)c1 [Compound 17] | 99.317 | > 7.11
30 | – | – | OC1(CN2C3CC2CN(Cc2nc4c(Cl)cc(F)cc4[nH]2)C3)CCC(F)(F)CC1 [Compound 151] | 95.252 | –
31 | – | – | O=C(CN1C2CCC1CN(Cc1nc3c(Cl)cc(F)cc3[nH]1)C2)N1CCC(O)CC1 [Compound 88] | 61.278 | –
32 | 6.85 | – | Cc1cc(Cl)cc(NC(=O)CN2C[C@@H]3C[C@H]2CN3CC(=O)NC(C)(C)C)c1 [Compound 283] | 94.657 | –
33 | 6.29 | – | CC(C)(C)NC(=O)CN1C[C@H]2C[C@@H]1CN2CC(=O)NC12CC3CC(CC(C3)C1)C2 [Compound 261] | 70.332 | –

Row | SMILES | pIC50 [2] | % Inhibition (Single Point Data) (Testing Conc 1, HEK-293 natClytin/TASK1+Cav3.1 cell line) [%] | % Inhibition (Single Point Data) [1] [%] | pIC50
34 | COc1cc(NC(=O)CN2CC3CC(C2)N3CC(=O)NC2(C(F)(F)F)CC2)ccc1F [Compound 257] | 6.63 | – | 89.324 | –
35 | CC(C)(C)NC(=O)CN1C2CC1CN(CC(=O)Nc1cc(Cl)cc(Cl)c1)C2 [Compound 286] | 6.97 | – | 89.866 | –
36 | CC(C)(NC(=O)CN1C2CC1CN(CC(=O)Nc1cc(F)cc(Cl)c1)C2)C(F)(F)F [Compound 129] | 6.65 | – | 89.48 | –
37 | O[C@H]1CC[C@@H](OCCN2C3CC2CN(Cc2nc4c(Cl)cc(F)cc4[nH]2)C3)CC1 [Compound 132] | 5.23 | – | 6.2687 | –
38 | CC(C)(C)NC(=O)CN1C2CCC1CN(Cc1nc3c(Cl)cc(F)cc3[nH]1)CC2 (centres unmarked) [Compound 65] | 6.15 | – | 82.104 | –
39 | CC(C)(C)NC(=O)CN1C2CC1CN(CC(=O)Nc1cc(F)cc(C#N)c1)C2 [Compound 220] | 6.17 | – | 80.621 | –
40 | CC(C)(C)NC(=O)CN1C2CC1CN(CC(=O)Nc1cccc(C(F)F)c1)C2 [Compound 15] | 6.51 | – | 73.866 | –
41 | O=C1CCCCN1CCN1C2CCC1CN(Cc1nc3c(Cl)cc(F)cc3[nH]1)C2 [Compound 97] | 6.43 | – | 79.865 | –
42 | Fc1ccc(Cl)c2nc(CN3CC4CC(C3)N4CC(F)(F)C3CCCCC3)[nH]c12 [Compound 176] | 6.89 | – | 83.015 | –
43 | CC(C)(NC(=O)CN1C2CC1CN(Cc1nc3c(F)ccc(F)c3[nH]1)C2)C(F)(F)F [Compound 166] | 6.60 | – | 87.157 | –
44 | O=C(CN1CC2CC(C1)N2CC(F)C1CCCCC1)Nc1cc(F)cc(Cl)c1 (centres unmarked) [Compound 49] | 5.93 | – | 44.843 | –
45 | CC(C)(C)NC(=O)CN1C2CC1CN(CC(=O)Nc1cc(F)c(F)c(Cl)c1)C2 [Compound 350] | > 7.11 | – | – | –
46 | CC(C)(C)NC(=O)CN1CC2CC1CN2CC(=O)Nc1cc(F)cc(Cl)c1 (centres unmarked) [Compound 130] | 6.92 | – | 92.618 | –
47 | N#CC1(CN2C3CC2CN(Cc2nc4c(Cl)ccc(F)c4[nH]2)C3)CCC(F)(F)CC1 [Compound 179] | 5.71 | – | 32.612 | –
48 | CC1(C(=O)OCCN2C3CC2CN(Cc2nc4c(Cl)cc(F)cc4[nH]2)C3)CC1 [Compound 143] | 6.76 | – | 78.298 | –
49 | CC(C)(C)NC(=O)CN1C2CC1CN(CC(=O)NC13CCC(CC1)C3)C2 [Compound 308] | 5.72 | – | 33.02 | –
50 | O=C(CN1CC2CC(C1)N2CCNC(=O)C1(C(F)(F)F)CC1)Nc1cc(F)cc(Cl)c1 [Compound 232] | 6.86 | – | 98.914 | –
51 | CC(C)(C)NC(=O)CN1C2CC1CN(CC(=O)Nc1ccc(F)c(C(F)F)c1)C2 [Compound 250] | 6.42 | – | 86.981 | –
52 | Cc1cccc2[nH]c(C(C)N3CC4CC(C3)N4CC(=O)NC(C)(C)C)nc12 (centres unmarked) [Compound 199] | 6.06 | – | 54.078 | –
